Consider 4 molecules from patent EP0100051A1, “New derivatives of 1-alkylamine-(4(p-alkyloxy-benzamide)phenoxy)-2-propanol, having beta-sympatholytic activity, their salts, and production processes thereof” (A. Menarini S.a.S., priority 1982, dated 1984).

Assay [1] has as its system β -chronotropic effects (cardiac frequency increase), β .-inotropic effects (systolic ejection velocity increase), and ,β2 effects (diastolic pressure lowering). As to the kind of experiment: antagonism of the effects of isoprenaline in the anaesthetized and reserpenized rat after oral administration (in vivo). The conditions noted are these: for inherent sympathicomimetic activity: cardiac frequency in the reserpenized animal at rest; for cardioselectivity: from the in vivo and in vitro results, β1 versus β2 effects of isoprenaline; for power gap between vivo and vitro: in vivo activity relative to in vitro activity.

Assay [2] relates to β chronotropic effects (cavy right atrium), β1 inotropic effects (cavy ventricle) and 2 effects (cavy trachea) of the isoprenaline. The experiment in a line: antagonism of the effects of isoprenaline on isolated tissues (in vitro). Particulars: compared with the compounds of the invention. The source says: The beta-sympatholytic activity of the compounds under examination has been tested in vivo as antagonist to the β -chronotropic effects (cardiac frequency increase), β .-inotropic effects (systolic ejection velocity increase), and ,β2 effects (diastolic pressure lowering) of the isoprenaline upon the anaesthetized and reserpenized rat, after oral administration, and in vitro as antagonist to the β chronotropic effects (cavy right atrium), β1 inotropic effects (cavy ventricle) and 2 effects (cavy trachea) of the isoprenaline.

For `CC(C)NCC(O)COc1ccc(NC(=O)c2ccccc2)cc1` (centres unmarked) [1-(4-benzamidephenoxy)-3-isopropylamine-2-propanol], in assay [1], the inherent sympathicomimetic activity entry was “also present”; the cardioselectivity entry is “also present”; the “power gap between vivo and vitro” value was “lack of a significant power gap between vivo and vitro”.

Turning to `CC(=O)Nc1ccc(OCC(O)CNC(C)C)cc1` (centres unmarked) [practolol], in assay [1], the inherent sympathicomimetic activity result is listed as “also present”; the cardioselectivity entry is given as “also present”; the “power gap between vivo and vitro” value is “lack of a significant power gap between vivo and vitro”.

For `CC(C)NCC(O)COc1cccc2ccccc12` (centres unmarked) [propranolol], in assay [2], the “beta-sympatholytic activity in vitro” value is recorded as “more active in vitro”. In addition, the “power gap between vivo and vitro” value in assay [1] is recorded as “relevant decrease of the in vivo activity”.

Take `CC(C)NCC(O)COc1ccc(NC(=O)c2ccc(Cl)cc2)cc1` (centres unmarked) [1 [4(-p--chlorobenzamide)phenoxy] -3-isopropylamine-2-propanol]: in assay [1], the inherent sympathicomimetic activity entry is listed as “also present”; the cardioselectivity result was “also present”; the “power gap between vivo and vitro” value is “lack of a significant power gap between vivo and vitro”.
